Data: PubChem BioAssay AID1963979 (Molecular Pharmacology Branch, DTP, NCI, 2024)
pIC50: −log10 of the molar value.

Test system: 361931-004-R-J1-PDC multicell spheroid viability
Test: Anticancer human tumor 361931-004-R-J1-PDC patient-derived colon adenocarcinoma cell line growth inhibition [PI3K]
Settings: for viability, T/C: stronger effect = lower value
In short: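 Viability of mixed-cell spheroids was determined after exposure to pairwise combinations, one partner being inavolisib, alpelisib, duvelisib or copanlisib. Highest tested concentration matched clinical Cmax where known and 10 microM where not, descending in half-log steps.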

[1] = curve of first compound, second compound 0.00316 µM
[2] = curve of first compound, second compound 0.01 µM
[3] = curve of first compound, second compound 0.0316 µM
[4] = curve of first compound, second compound 0.1 µM
[5] = curve of first compound, second compound 0.316 µM
[6] = curve of first compound, second compound 1 µM
[7] = second compound 0.00316 µM, first compound 0.000316 µM
[8] = second compound 0.00316 µM, first compound 0.001 µM
[9] = second compound 0.00316 µM, first compound 0.00316 µM
[10] = second compound 0.00316 µM, first compound 0.01 µM
[11] = second compound 0.00316 µM, first compound 0.0316 µM
[12] = second compound 0.00316 µM, first compound 0.1 µM
[13] = second compound 0.01 µM, first compound 0.000316 µM
[14] = second compound 0.01 µM, first compound 0.001 µM
[15] = second compound 0.01 µM, first compound 0.00316 µM
[16] = second compound 0.01 µM, first compound 0.01 µM
[17] = second compound 0.01 µM, first compound 0.0316 µM
[18] = second compound 0.01 µM, first compound 0.1 µM
[19] = second compound 0.0316 µM, first compound 0.000316 µM
[20] = second compound 0.0316 µM, first compound 0.001 µM
[21] = second compound 0.0316 µM, first compound 0.00316 µM
[22] = second compound 0.0316 µM, first compound 0.01 µM
[23] = second compound 0.0316 µM, first compound 0.0316 µM
[24] = second compound 0.0316 µM, first compound 0.1 µM
[25] = second compound 0.1 µM, first compound 0.000316 µM
[26] = second compound 0.1 µM, first compound 0.001 µM
[27] = second compound 0.1 µM, first compound 0.00316 µM
[28] = second compound 0.1 µM, first compound 0.01 µM
[29] = second compound 0.1 µM, first compound 0.0316 µM
[30] = second compound 0.1 µM, first compound 0.1 µM
[31] = second compound 0.316 µM, first compound 0.000316 µM
[32] = second compound 0.316 µM, first compound 0.001 µM
[33] = second compound 0.316 µM, first compound 0.00316 µM
[34] = second compound 0.316 µM, first compound 0.01 µM
[35] = second compound 0.316 µM, first compound 0.0316 µM
[36] = second compound 0.316 µM, first compound 0.1 µM
[37] = second compound 1 µM, first compound 0.000316 µM
[38] = second compound 1 µM, first compound 0.001 µM
[39] = second compound 1 µM, first compound 0.00316 µM
[40] = second compound 1 µM, first compound 0.01 µM
[41] = second compound 1 µM, first compound 0.0316 µM
[42] = second compound 1 µM, first compound 0.1 µM
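Also: spheroids exposed to agents for seven days before readout.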

Cn1ncnc1[C@H]1c2n[nH]c(=O)c3cc(F)cc(c23)N[C@@H]1c1ccc(F)cc1 + CC(Nc1ccc2c(c1)OCCn1cc(N3C(=O)OCC3C(F)F)nc1-2)C(N)=O
pIC50 [1]: < 7.00
pIC50 [2]: < 7.00
pIC50 [3]: < 7.00
pIC50 [4]: < 7.00
pIC50 [5]: < 7.00
pIC50 [6]: < 7.00
viability, T/C [7]: 95.9%
viability, T/C [8]: 96.1%
viability, T/C [9]: 89.4%
viability, T/C [10]: 88.8%
viability, T/C [11]: 95.6%
viability, T/C [12]: 81.9%
viability, T/C [13]: 99.7%
viability, T/C [14]: 98.7%
viability, T/C [15]: 94.6%
viability, T/C [16]: 94.2%
viability, T/C [17]: 89.8%
viability, T/C [18]: 91.1%
viability, T/C [19]: 97.8%
viability, T/C [20]: 100%
viability, T/C [21]: 95.4%
viability, T/C [22]: 94.3%
viability, T/C [23]: 98%
viability, T/C [24]: 93.6%
viability, T/C [25]: 101%
viability, T/C [26]: 77.5%
viability, T/C [27]: 93.7%
viability, T/C [28]: 86.2%
viability, T/C [29]: 82%
viability, T/C [30]: 67.1%
viability, T/C [31]: 89.3%
viability, T/C [32]: 94.8%
viability, T/C [33]: 86.2%
viability, T/C [34]: 85.4%
viability, T/C [35]: 77.5%
viability, T/C [36]: 76.2%
viability, T/C [37]: 85.9%
viability, T/C [38]: 77.4%
viability, T/C [39]: 88.2%
viability, T/C [40]: 69.7%
viability, T/C [41]: 70.6%
viability, T/C [42]: 64.4%

CC(Cn1ccc(-c2ccc(C#N)c(Cl)c2)n1)NC(=O)c1cc(C(C)O)[nH]n1 (stereo not drawn) + Cc1nc(NC(=O)N2CCCC2C(N)=O)sc1-c1ccnc(C(C)(C)C(F)(F)F)c1
pIC50 [3]: < 5.00
pIC50 [4]: < 5.00
pIC50 [5]: < 5.00
pIC50 [6]: < 5.00
pIC50 (curve of first compound, second compound 3.16 µM): < 5.00
pIC50 (curve of first compound, second compound 10 µM): < 5.00
viability, T/C [23]: 102%
viability, T/C [24]: 102%
viability, T/C (second compound 0.0316 µM, first compound 0.316 µM): 96.3%
viability, T/C (second compound 0.0316 µM, first compound 1 µM): 100%
viability, T/C (second compound 0.0316 µM, first compound 3.16 µM): 107%
viability, T/C (second compound 0.0316 µM, first compound 10 µM): 98.7%
viability, T/C [29]: 105%
viability, T/C [30]: 105%
viability, T/C (second compound 0.1 µM, first compound 0.316 µM): 99.1%
viability, T/C (second compound 0.1 µM, first compound 1 µM): 113%
viability, T/C (second compound 0.1 µM, first compound 3.16 µM): 109%
viability, T/C (second compound 0.1 µM, first compound 10 µM): 101%
viability, T/C [35]: 98.5%
viability, T/C [36]: 113%
viability, T/C (second compound 0.316 µM, first compound 0.316 µM): 95.6%
viability, T/C (second compound 0.316 µM, first compound 1 µM): 105%
viability, T/C (second compound 0.316 µM, first compound 3.16 µM): 98.9%
viability, T/C (second compound 0.316 µM, first compound 10 µM): 91.5%
viability, T/C [41]: 95.4%
viability, T/C [42]: 102%
viability, T/C (second compound 1 µM, first compound 0.316 µM): 87.4%
viability, T/C (second compound 1 µM, first compound 1 µM): 96%
viability, T/C (second compound 1 µM, first compound 3.16 µM): 97%
viability, T/C (second compound 1 µM, first compound 10 µM): 84.2%
viability, T/C (second compound 3.16 µM, first compound 0.0316 µM): 87.4%
viability, T/C (second compound 3.16 µM, first compound 0.1 µM): 81.3%
viability, T/C (second compound 3.16 µM, first compound 0.316 µM): 90.7%
viability, T/C (second compound 3.16 µM, first compound 1 µM): 83.6%
viability, T/C (second compound 3.16 µM, first compound 3.16 µM): 94.4%
viability, T/C (second compound 3.16 µM, first compound 10 µM): 79.4%
viability, T/C (second compound 10 µM, first compound 0.0316 µM): 68%
viability, T/C (second compound 10 µM, first compound 0.1 µM): 68%
viability, T/C (second compound 10 µM, first compound 0.316 µM): 72.8%
viability, T/C (second compound 10 µM, first compound 1 µM): 62.4%
viability, T/C (second compound 10 µM, first compound 3.16 µM): 59.8%
viability, T/C (second compound 10 µM, first compound 10 µM): 53%

C=CC(=O)N1CCN(c2nc(=O)n(-c3c(C)ccnc3C(C)C)c3nc(-c4c(O)cccc4F)c(F)cc23)C(C)C1 (stereo not drawn)
viability, T/C (compound 0.0316 µM): 99.5% [middle of 4 runs]
viability, T/C (compound 0.1 µM): 95.4% [middle of 4 runs]
viability, T/C (compound 0.316 µM): 105% [middle of 4 runs]
viability, T/C (compound 1 µM): 103% [middle of 4 runs]
viability, T/C (compound 3.16 µM): 100% [middle of 4 runs]
viability, T/C (compound 10 µM): 99.2% [middle of 4 runs]
pIC50 (curve of compound): < 5.00

Cn1ncnc1[C@H]1c2n[nH]c(=O)c3cc(F)cc(c23)N[C@@H]1c1ccc(F)cc1 + COc1c(OCCCN2CCOCC2)ccc2c3n(c(=NC(=O)c4cnc(N)nc4)nc12)CCN3
pIC50 [1]: < 7.00
pIC50 [2]: < 7.00
pIC50 [3]: < 7.00
pIC50 [4]: < 7.00
pIC50 [5]: 8.96
pIC50 [6]: > 9.50
viability, T/C [7]: 105%
viability, T/C [8]: 106%
viability, T/C [9]: 97.9%
viability, T/C [10]: 98.2%
viability, T/C [11]: 101%
viability, T/C [12]: 87.8%
viability, T/C [13]: 91.1%
viability, T/C [14]: 97.1%
viability, T/C [15]: 102%
viability, T/C [16]: 93%
viability, T/C [17]: 91.5%
viability, T/C [18]: 84.9%
viability, T/C [19]: 97%
viability, T/C [20]: 87%
viability, T/C [21]: 90%
viability, T/C [22]: 82.7%
viability, T/C [23]: 87.3%
viability, T/C [24]: 77.9%
viability, T/C [25]: 81.7%
viability, T/C [26]: 73.5%
viability, T/C [27]: 78.6%
viability, T/C [28]: 72.4%
viability, T/C [29]: 80.3%
viability, T/C [30]: 64.7%
viability, T/C [31]: 50.5%
viability, T/C [32]: 53.9%
viability, T/C [33]: 48.3%
viability, T/C [34]: 41.5%
viability, T/C [35]: 41%
viability, T/C [36]: 39.2%
viability, T/C [37]: 15.9%
viability, T/C [38]: 19.1%
viability, T/C [39]: 20.5%
viability, T/C [40]: 19.7%
viability, T/C [41]: 16.3%
viability, T/C [42]: 17.6%
